Laboratory results: patent US20050049282A1, “Process” (priority 2001, published 2005)

Assays:
[1] = room temperature and daylight; cited from earlier work
[2] = Stability of omeprazole in alcoholic solution under chromatographic conditions; assay type: physicochemical; details: methanol with addition of 0.1% diethylamine
Source text: It has previously been reported that alcoholic solution of omeprazole is not stable in room temperature and in daylight. There is thus a risk that one or several decomposition products might co-elute with one of the enantiomers.

COc1ccc2[nH]c([S+]([O-])Cc3ncc(C)c(OC)c3C)nc2c1 (racemic) [omeprazole, 5-methoxy-2-[[(4-methoxy-3,5-dimethyl-2-pyridinyl)methyl]sulfinyl]-1H-benzimidazole]
stability of alcoholic solution [1]: not stable
stability of solution in methanol [2]: stabilizes a solution of omeprazole in methanol to a sufficient degree
